System: yeast genes (level of expressed mRNA)
Experiment: DNA chip analysis of expressed mRNA of yeast genes after 2 h culture with a toxic chemical substance
Assay type: cell-based, Saccharomyces cerevisiae S288C
Details: for The level of expressed mRNA in the presence of chemical substance/: ratio to no chemical; for The level of expressed mRNA in the presence of chemical substance/ (ratio to absence): transport facilitation protein gene; for The level of expressed mRNA in the presence of chemical substance/ (ratio to absence of chemical substance): stress protein genes, DNA chip
Method in brief: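 Values are treated-to-control fluorescence ratios from a whole-yeast-genome DNA chip (65° C, over 12 h hybridization) using Cy3/Cy5-labelled cDNA from mRNA. Log-phase S288C cells in YPD at 25° C were exposed 2 h to a toxicant at sublethal, growth-inhibiting concentration.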

sodium dodecylbenzosulfonate [(17)]
The level of expressed mRNA in the presence of chemical substance/ (yeast gene YNL240C): 0.8
The level of expressed mRNA in the presence of chemical substance/in the absence of chemical substance (yeast gene YNL241C): 1.0
The level of expressed mRNA in the presence of chemical substance/ (ratio to absence) (yeast gene YNL259C): 2.6
The level of expressed mRNA in the presence of chemical substance/ (yeast gene YNL260C): 0.9
The level of expressed mRNA in the presence of chemical substance/in the absence of chemical substance (yeast gene YNL274C): 1.4
The level of expressed mRNA in the presence of chemical substance/ (yeast gene YNL285W): 1.2
The level of expressed mRNA in the presence of chemical substance/ (yeast gene YNL293W): 1.0
The level of expressed mRNA in the presence of chemical substance/in the absence of chemical substance (yeast gene YNL331C): 1.7
The level of expressed mRNA in the presence of chemical substance/in the absence of chemical substance (yeast gene YNL332W): 1.0
The level of expressed mRNA in the presence of chemical substance/The level of expressed mRNA in the absence of chemical substance (yeast gene YNL333W): 1.4
The level of expressed mRNA in the presence of chemical substance/The level of expressed mRNA in the absence of chemical substance (yeast gene YNR010W): 1.7
The level of expressed mRNA in the presence of chemical substance/ (yeast gene YNR061C): 1.6
The level of expressed mRNA in the presence of chemical substance/The level of expressed mRNA in the absence of chemical substance (yeast gene YNR069C): 1.1
The level of expressed mRNA in the presence of chemical substance/ (in its absence), gene YNR072W (yeast gene YNR072W, ratio of DNA chip fluorescence intensity to that without chemical substance): 1.3
The level of expressed mRNA in the presence of chemical substance/ (yeast gene YNR074C): 0.9
The level of expressed mRNA in the presence of chemical substance/ (ratio to absence of chemical substance) (yeast gene YNR076W): 1.5
The level of expressed mRNA in the presence of chemical substance/The level of expressed mRNA in the absence of chemical substance (yeast gene YOL013C): 1.1
The level of expressed mRNA in the presence of chemical substance/ (yeast gene YOL084W): 1.3
The level of expressed mRNA in the presence of chemical substance/ (ratio to absence), gene YOL096C (yeast gene YOL096C, mitochondria-located protein genes, 2 h culture with chemical): 1.2
The level of expressed mRNA in the presence of chemical substance/ (in its absence), gene YOL096C (yeast gene YOL096C, ratio of DNA chip fluorescence intensity to that without chemical substance): 1.2
The level of expressed mRNA in the presence of chemical substance/ (in its absence), gene YOL108C (yeast gene YOL108C, ratio of DNA chip fluorescence intensity to that without chemical substance): 1.5
The level of expressed mRNA in the presence of chemical substance/ (in its absence), gene YOL116W (yeast gene YOL116W, ratio of DNA chip fluorescence intensity to that without chemical substance): 1.1
The level of expressed mRNA in the presence of chemical substance/ (ratio to absence) (yeast gene YOL119C): 1.4
The level of expressed mRNA in the presence of chemical substance/in the absence of chemical substance (yeast gene YOL151W): 4.0
The level of expressed mRNA in the presence of chemical substance/ (ratio to absence) (yeast gene YOL158C): 1.4
The level of expressed mRNA in the presence of chemical substance/ (yeast gene YOL159C): 2.0
The level of expressed mRNA in the presence of chemical substance/ (ratio to absence of chemical substance) (yeast gene YOL161C): 1.1
The level of expressed mRNA in the presence of chemical substance/ (ratio to absence) (yeast gene YOL163W): 0.8
The level of expressed mRNA in the presence of chemical substance/The level of expressed mRNA in the absence of chemical substance (yeast gene YOL164W): 1.1
The level of expressed mRNA in the presence of chemical substance/in the absence of chemical substance (yeast gene YOL165C): 1.6
The level of expressed mRNA in the presence of chemical substance/ (yeast gene YOR007C): 1.2
The level of expressed mRNA in the presence of chemical substance/ (ratio to absence of chemical substance) (yeast gene YOR008C): 0.8
The level of expressed mRNA in the presence of chemical substance/ (ratio to absence of chemical substance) (yeast gene YOR009W): 0.9
The level of expressed mRNA in the presence of chemical substance/ (ratio to absence of chemical substance) (yeast gene YOR010C): 1.4
The level of expressed mRNA in the presence of chemical substance/ (ratio to absence) (yeast gene YOR035C): 1.6
The level of expressed mRNA in the presence of chemical substance/The level of expressed mRNA in the absence of chemical substance (yeast gene YOR036W): 1.6
The level of expressed mRNA in the presence of chemical substance/ (in its absence), gene YOR103C (yeast gene YOR103C, ratio of DNA chip fluorescence intensity to that without chemical substance): 1.1
The level of expressed mRNA in the presence of chemical substance/The level of expressed mRNA in the absence of chemical substance (yeast gene YOR117W): 1.4
The level of expressed mRNA in the presence of chemical substance/in the absence of chemical substance (yeast gene YOR120W): 1.3
The level of expressed mRNA in the presence of chemical substance/The level of expressed mRNA in the absence of chemical substance (yeast gene YOR124C): 1.0
The level of expressed mRNA in the presence of chemical substance/ (ratio to absence) (yeast gene YOR130C): 1.5
The level of expressed mRNA in the presence of chemical substance/The level of expressed mRNA in the absence of chemical substance (yeast gene YOR132W): 1.2
The level of expressed mRNA in the presence of chemical substance/in the absence of chemical substance (yeast gene YOR153W): 2.5
The level of expressed mRNA in the presence of chemical substance/The level of expressed mRNA in the absence of chemical substance (yeast gene YOR157C): 1.2
The level of expressed mRNA in the presence of chemical substance/ (in its absence), gene YOR180C (yeast gene YOR180C, ratio of DNA chip fluorescence intensity to that without chemical substance): 0.9
The level of expressed mRNA in the presence of chemical substance/The level of expressed mRNA in the absence of chemical substance (yeast gene YOR181W): 1.1
The level of expressed mRNA in the presence of chemical substance/The level of expressed mRNA in the absence of chemical substance (yeast gene YOR185C): 0.9

— patent US20050112573A1, “Method of detecting toxic substance” (priority 2001, published 2005)
